# Patent US20250136594A1 (Tango Therapeutics, Inc., priority 2022, published 2025)
# Where two headings read alike, the source gives them in different places.
# Legend:
# [1] = tested on: SDMA in HAP1 MTAP-deleted (MTAP-null) cell line (PRMT5 inhibition); experiment: SDMA in-cell western assay, HAP1 MTAP-deleted cell line; conditions: for Hap1 MTAP intact/deleted ratio: ratio of SDMA IC50 in HAP1 MTAP-intact to HAP1 MTAP-deleted cell line
# Description: (§1) HAP1 MTAP-intact is a cell line in which endogenous levels of MTAP are expressed, and HAP1 MTAP-deleted is an MTAP-null cell line.
# [2] = tested on: HAP1 MTAP-deleted cell line; experiment: Viability assay, HAP1 MTAP-deleted cell line; assay type: cell-based
# [3] = tested on: SDMA in HAP1 MTAP-intact cell line (PRMT5 inhibition); experiment: SDMA in-cell western assay, HAP1 MTAP-intact cell line
# Description: as §1
# [4] = Homo sapiens, HAP1, read-out: Hap1 MTAP deleted IC50
# [5] = Homo sapiens, HAP1, read-out: Hap1 MTAP deleted IC90
# [6] = Homo sapiens, viability assay, HAP1 MTAP-deleted cell line, read-out: Hap1 MTAP deleted viability IC50
# [7] = Homo sapiens, HAP1, read-out: Hap1 MTAP intact IC50
SMILES,"IC50 [1, 4] [µM]","IC90 [1, 5] [µM]",Hap1 MTAP intact/deleted ratio [1],"IC50 [2, 6] [µM]","IC50 [3, 7] [µM]","IC50 ([2]; Homo sapiens, HAP1, read-out: Hap1 MTAP deleted viability IC50) [µM]","IC50 ([1]; read-out: Hap1 MTAP deleted IC50, SDMA in-cell western, HAP1 MTAP-deleted cell line) [µM]","IC90 ([1]; read-out: Hap1 MTAP deleted IC90, SDMA in-cell western, HAP1 MTAP-deleted cell line) [µM]","IC50 ([2]; viability assay, HAP1 MTAP-deleted cell line, read-out: Hap1 MTAP deleted viability IC50) [µM]","IC50 ([3]; read-out: Hap1 MTAP intact IC50, SDMA in-cell western, HAP1 MTAP-intact cell line) [µM]"
"C[C@@H](c1ccc(C(F)(F)C(F)(F)F)cc1)N(C)C(=O)C(=O)Nc1cnc(N)c2cn[nH]c12 [Compound 131, N-(4-amino-1H-pyrazolo[4,3-c]pyridin-7-yl)-N′-methyl-N′—[(1S)-1-[4-(1,1,2,2,2-pentafluoroethyl)phenyl]ethyl]oxamide]",0.005 to 0.05,> 0.125,A (IC50 ratio greater than or equal to 30 fold),< 0.1,> 0.05,–,–,–,–,–
"COC[C@@H](C1CC1)N(Cc1ccc(C(F)(F)F)cn1)C(=O)C(=O)Nc1cnc(N)c2cn[nH]c12 [Compound 39, (R)-N1-(4-amino-1H-pyrazolo[4,3-c]pyridin-7-yl)-N^2-(1-cyclopropyl-2-methoxyethyl)-N^2-((5-(trifluoromethyl)pyridin-2-yl)methyl)oxalamide]",< 0.005,< 0.075,B (IC50 ratio greater than or equal to 15 fold but lower than 30 fold),< 0.1,0.005 to 0.05,–,–,–,–,–
"Cc1cccc(CN(Cc2ccccc2)C(=O)C(=O)Nc2cnc(N)c3cn[nH]c23)n1 [Compound 191, N-(4-amino-1H-pyrazolo[4,3-c]pyridin-7-yl)-N′-benzyl-N′-[(6-methyl-2-pyridyl)methyl]oxamide]",< 0.005,< 0.075,A (IC50 ratio greater than or equal to 30 fold),< 0.1,0.005 to 0.05,–,–,–,–,–
"C[C@@H](c1ccc(C(F)(F)F)cc1C(F)(F)F)N(C)C(=O)C(=O)Nc1cnc(N)c2cn[nH]c12 [Compound 169, N-(4-Amino-2H-pyrazolo[4,3-c]pyridin-7-yl)-N′-methyl-N′—[(1S)-1-[2,4-bis (trifluoromethyl)phenyl]ethyl]oxamide]",0.005 to 0.05,> 0.125,–,–,> 0.05,0.1 to 1,–,–,–,–
"CC(CN(Cc1ccc(C(F)(F)F)cn1)C(=O)C(=O)Nc1cnc(N)c(C2CC2)c1)C1CC1 (centres unmarked) [Compound 13, N-(6-amino-5-cyclopropyl-3-pyridyl)-N′-(2-cyclopropylpropyl)-N′-[[5-(trifluoromethyl)-2-pyridyl]methyl]oxamide]",0.005 to 0.05,> 0.125,A (IC50 ratio greater than or equal to 30 fold),0.1 to 1,> 0.05,–,–,–,–,–
COc1ncc(NC(=O)C(=O)N(Cc2ccc(C(F)(F)F)cn2)Cc2ccccc2C)cc1C(N)=O [Compound 143],< 0.005,< 0.075,A (IC50 ratio greater than or equal to 30 fold),< 0.1,> 0.05,–,–,–,–,–
"COC[C@@H](C1CC1)N(Cc1ccc(C(F)(F)F)cn1)C(=O)C(=O)Nc1cnc(N)c(C)c1 [Compound 5, (R)—N^1-(6-amino-5-methylpyridin-3-yl)-N^2-(1-cyclopropyl-2-methoxyethyl)-N^2-((5-(trifluoromethyl)pyridin-2-yl)methyl)oxalamide]",0.005 to 0.05,< 0.075,C (IC50 ratio of less than 15 fold),< 0.1,0.005 to 0.05,–,–,–,–,–
"C[C@@H](c1ccc(C(F)(F)F)cn1)N(C)C(=O)C(=O)Nc1cnc(N)c2cn[nH]c12 [Compound 127, N-(4-amino-1H-pyrazolo[4,3-c]pyridin-7-yl)-N′-methyl-N′—[(1S)-1-[5-(trifluoromethyl)-2-pyridyl]ethyl]oxamide]",0.005 to 0.05,> 0.125,A (IC50 ratio greater than or equal to 30 fold),0.1 to 1,> 0.05,–,–,–,–,–
"Cc1cc(NC(=O)C(=O)N(Cc2ccc(C(F)(F)F)cn2)[C@@H](C)c2ncccn2)cnc1N [Compound 49, N-(6-amino-5-methyl-3-pyridyl)-N′—[(1S)-1-pyrimidin-2-ylethyl]-N′-[[5-(trifluoromethyl)-2-pyridyl]methyl]oxamide]",0.005 to 0.05,> 0.125,C (IC50 ratio of less than 15 fold),0.1 to 1,0.005 to 0.05,–,–,–,–,–
"Nc1ncc(NC(=O)C(=O)N(Cc2ccccc2)C2CCCc3ccccc32)c2[nH]ncc12 (racemic) [Compound 141, rac-N-(4-Amino-1H-pyrazolo[4,3-c]pyridin-7-yl)-N′-benzyl-N′-tetralin-1-yl-oxamide]",< 0.005,< 0.075,C (IC50 ratio of less than 15 fold),< 0.1,0.005 to 0.05,–,–,–,–,–
"Cc1cccnc1CN(Cc1ccccn1)C(=O)C(=O)Nc1cnc(N)c2cn[nH]c12 [Compound 180, N-(4-amino-2H-pyrazolo[4,3-c]pyridin-7-yl)-N′-[(3-methyl-2-pyridyl)methyl]-N′-(2-pyridylmethyl)oxamide]",< 0.005,< 0.075,C (IC50 ratio of less than 15 fold),< 0.1,0.005 to 0.05,–,–,–,–,–
"CC1CCC(N(Cc2ccc(C(F)(F)F)cn2)C(=O)C(=O)Nc2ccn3ccnc3c2)c2ccccc21 (centres unmarked) [Compound 12, N-imidazo[1,2-a]pyridin-7-yl-N′-(4-methyltetralin-1-yl)-N′-[[5-(trifluoromethyl)-2-pyridyl]methyl]oxamide]",0.005 to 0.05,> 0.125,C (IC50 ratio of less than 15 fold),0.1 to 1,> 0.05,–,–,–,–,–
"Nc1ncc(NC(=O)C(=O)N(Cc2ccccc2)Cc2ccc(F)cn2)c2[nH]ncc12 [Compound 68, N-(4-amino-1H-pyrazolo[4,3-c]pyridin-7-yl)-N′-benzyl-N′-[(5-fluoro-2-pyridyl)methyl]oxamide]",< 0.005,< 0.075,A (IC50 ratio greater than or equal to 30 fold),< 0.1,> 0.05,–,–,–,–,–
"CC[C@H](C)CN(Cc1ccccn1)C(=O)C(=O)Nc1cnc(N)c2cn[nH]c12 [Compound 128, (S)—N^1-(4-amino-1H-pyrazolo[4,3-c]pyridin-7-yl)-N^2-(2-methylbutyl)-N^2-(pyridin-2-ylmethyl)oxalamide]",< 0.005,< 0.075,A (IC50 ratio greater than or equal to 30 fold),< 0.1,> 0.05,–,–,–,–,–
"CCc1cc(NC(=O)C(=O)N(Cc2ccc(C(F)(F)F)cn2)C2CCC(C)c3ccccc32)cnc1N (centres unmarked) [Compound 10, N-(6-amino-5-ethyl-3-pyridyl)-N′-(4-methyltetralin-1-yl)-N′-[[5-(trifluoromethyl)-2-pyridyl]methyl]oxamide]",0.005 to 0.05,0.075 to 0.125,C (IC50 ratio of less than 15 fold),0.1 to 1,> 0.05,–,–,–,–,–
"Cc1cccnc1CN(C(=O)C(=O)Nc1cnc(N)c2cn[nH]c12)C(C)C(C)C (single isomer, unassigned) [Compound 171]",–,–,C (IC50 ratio of less than 15 fold),–,–,–,< 0.005,< 0.075,< 0.1,0.005 to 0.05
"Nc1ncc(NC(=O)C(=O)N(Cc2ccccc2)CC2CCCCC2)c2[nH]ncc12 [Compound 175, N-(4-amino-1H-pyrazolo[4,3-c]pyridin-7-yl)-N′-benzyl-N′-(cyclohexylmethyl)oxamide]",< 0.005,< 0.075,A (IC50 ratio greater than or equal to 30 fold),< 0.1,> 0.05,–,–,–,–,–
"Cc1cc(F)cnc1CN(Cc1ccc(F)cn1)C(=O)C(=O)Nc1cnc(N)c2cn[nH]c12 [Compound 88, N-(4-amino-1H-pyrazolo[4,3-c]pyridin-7-yl)-N′-[(5-fluoro-3-methyl-2-pyridyl)methyl]-N′-[(5-fluoro-2-pyridyl)methyl]oxamide]",< 0.005,< 0.075,B (IC50 ratio greater than or equal to 15 fold but lower than 30 fold),< 0.1,0.005 to 0.05,–,–,–,–,–
"Nc1ncc(NC(=O)C(=O)N(Cc2ccc(C(F)(F)F)cn2)[C@@H]2CCc3ccccc32)c2[nH]ncc12 [Compound 8, (R)-N1-(4-amino-1H-pyrazolo[4,3-c]pyridin-7-yl)-N2-(2,3-dihydro-1H-inden-1-yl)-N2-((5-(trifluoromethyl)pyridin-2-yl)methyl)oxalamide]",< 0.005,< 0.075,C (IC50 ratio of less than 15 fold),< 0.1,< 0.005,–,–,–,–,–
"C[C@@H](c1ncccn1)N(Cc1ccc(C(F)(F)F)cn1)C(=O)C(=O)Nc1cnc(N)c2cn[nH]c12 (stereo in doubt) [Compound 50, N-(4-amino-1H-pyrazolo[4,3-c]pyridin-7-yl)-N′-(1-pyrimidin-2-ylethyl)-N′-[[5-(trifluoromethyl)-2-pyridyl]methyl]oxamide]",< 0.005,< 0.075,C (IC50 ratio of less than 15 fold),< 0.1,0.005 to 0.05,–,–,–,–,–
"CC(C)N(Cc1ccccc1C(F)(F)F)C(=O)C(=O)Nc1cnc(N)c2cn[nH]c12 [Compound 73, N-(4-amino-1H-pyrazolo[4,3-c]pyridin-7-yl)-N′-isopropyl-N′-[[2-(trifluoromethyl)phenyl]methyl]oxamide]",< 0.005,< 0.075,B (IC50 ratio greater than or equal to 15 fold but lower than 30 fold),< 0.1,0.005 to 0.05,–,–,–,–,–
